This test deals with PtmO8 (Streptomyces platensis, UniProt A0A0A0UVL0). Description: steady-state enzyme kinetics. The format is biochemical.

By Km is commonly meant the substrate concentration at which the rate is half of its maximum.

As to `NC(=O)c1ccc[n+]([C@@H]2O[C@H](COP(=O)([O-])OP(=O)(O)OC[C@H]3O[C@@H](n4cnc5c(N)ncnc54)[C@H](O)[C@@H]3O)[C@@H](O)[C@H]2O)c1` [NAD^+], the Km is 34.2 ± 3.6 µM.

For the origin of these results see paper PMC6545883 (Journal of the American Chemical Society, 2019).
